The results in this text go back to ChEMBL document CHEMBL5241125, “Overcoming intrinsic resistance in gram-negative bacteria using small molecule adjuvants” (Bioorg Med Chem Lett, 2023).

Where a SMILES comes first, the peptide text is derived from it. Bridges are numbered along the chain shown (N, C = ends). [ ]: non-standard residue; d: D form. Dab = NCC[C@H](N)C(=O)O

Experiment [1] concerns Acinetobacter baumannii. Kind of experiment: Antibacterial adjuvant activity against Acinetobacter baumannii AB5075 assessed as decrease in clarithromycin MIC at 30 uM incubated for 16 hrs in presence of clarithromycin by broth microdilution method. The experiment is classed as functional.
For experiment [2], the system named is Acinetobacter baumannii. Kind of experiment: Antibacterial adjuvant activity against Acinetobacter baumannii AB5075 assessed as decrease in clarithromycin MIC at 10 uM incubated for 16 hrs in presence of clarithromycin by broth microdilution method. The experiment is classed as functional.
The subject of experiment [3] is Acinetobacter baumannii. Kind of experiment: Antibacterial adjuvant activity against Acinetobacter baumannii AB5075 assessed as decrease in vancomycin MIC at 30 uM incubated for 16 hrs in presence of vancomycin by broth microdilution method. The experiment is classed as functional.
Experiment [4] relates to Escherichia coli. Kind of experiment: Antibacterial activity against Escherichia coli IH3080 assessed as reduction in bacterial growth by measuring fold change incubated for 18 hrs by spectrophotometry. The experiment is classed as functional.
Experiment [5] concerns Salmonella typhimurium. Kind of experiment: Antibacterial activity against Salmonella typhimurium SH5014 assessed as reduction in bacterial growth by measuring fold change incubated for 18 hrs by spectrophotometry. The experiment is classed as functional, Salmonella enterica subsp. enterica serovar Typhimurium.
In experiment [6] the test system is Salmonella typhimurium. Kind of experiment: Antibacterial activity against Salmonella typhimurium SH5014 assessed as reduction in bacterial growth by measuring fold change at 3 ug/ml incubated for 18 hrs by spectrophotometry. The format is functional, Salmonella enterica subsp. enterica serovar Typhimurium. The following applies: dose 3 µg/ml.
The test system of experiment [7] is Escherichia coli. Kind of experiment: Antibacterial activity against Escherichia coli IH3080 assessed as reduction in bacterial growth by measuring fold change at 3 ug/ml incubated for 18 hrs by spectrophotometry. The experiment is classed as functional. The following applies: dose 3 µg/ml.
Experiment [8] deals with Pseudomonas aeruginosa. Kind of experiment: Antibacterial adjuvant activity against Pseudomonas aeruginosa PAO1 assessed as decrease in azithromycin MIC at 60 uM incubated for 16 hrs in presence of azithromycin by broth microdilution method. The format is functional.
In experiment [9] the test system is Pseudomonas aeruginosa. Kind of experiment: Antibacterial adjuvant activity against Pseudomonas aeruginosa PAO1 assessed as decrease in azithromycin MIC at 40 uM incubated for 16 hrs in presence of azithromycin by broth microdilution method. The experiment is classed as functional.
For experiment [10], the system named is Acinetobacter baumannii. Kind of experiment: Synergistic antibacterial activity against colistin-resistant Acinetobacter baumannii ATCC 17978 infected in C57BL/6 mouse assessed as increase in survival rate at 50 mg/kg,po administered in presence of pentamidine for 7 days. The format is functional. The following applies: ATCC 17978, 168 h, time 7 day.
Experiment [11] concerns Acinetobacter baumannii. Kind of experiment: Synergistic antibacterial activity against colistin-sensitive Acinetobacter baumannii ATCC 17978 infected in C57BL/6 mouse assessed as increase in survival rate at 5 mg/kg,po administered in presence of pentamidine for 7 days. The format is functional. The following applies: ATCC 17978, 168 h, time 7 day.
The nature of experiment [12]: Binding affinity to Escherichia coli Lipid A assessed as dissociation constant.
Experiment [13] deals with Acinetobacter baumannii. Kind of experiment: Synergistic antibacterial activity against colistin-sensitive Acinetobacter baumannii ATCC 17978 infected in C57BL/6 mouse assessed as increase in survival rate at 10 mg/kg,po administered in presence of novobiocin for 7 days. The following applies: ATCC 17978, 168 h, time 7 day. The experiment is classed as functional.
In experiment [14] the test system is Acinetobacter baumannii. Kind of experiment: Synergistic antibacterial activity against colistin-resistant Acinetobacter baumannii ATCC 17978 infected in C57BL/6 mouse assessed as increase in survival rate at 10 mg/kg,po administered in presence of novobiocin for 7 days. The format is functional. The following applies: ATCC 17978, 168 h, time 7 day.
Experiment [15] deals with Acinetobacter baumannii. Kind of experiment: Synergistic antibacterial activity against Acinetobacter baumannii infected in mouse assessed as reduction of bacterial burden in lung at 5 mg/kg,po administered bid in presence of SPR741 for 3 days. The format is functional. The following applies: time 3 day.
The test system of experiment [16] is Acinetobacter baumannii. Kind of experiment: Synergistic antibacterial activity against Acinetobacter baumannii infected in mouse assessed as increase in survival rate at 5 mg/kg,po administered bid in presence of SPR741 for 3 days. The experiment is classed as functional. The following applies: 72 h, time 3 day.
Experiment [17] deals with Acinetobacter baumannii. Kind of experiment: Antibacterial activity against Acinetobacter baumannii infected in mouse assessed as increase in survival rate at 5 mg/kg,po administered bid for 3 days. The experiment is classed as functional. The following applies: 72 h, time 3 day.
Experiment [18] relates to Acinetobacter baumannii. Kind of experiment: Antibacterial activity against Acinetobacter baumannii infected in mouse assessed as reduction of bacterial burden in lung at 5 mg/kg,po administered bid for 3 days. The experiment is classed as functional. The following applies: time 3 day.
Experiment [19] relates to Acinetobacter baumannii. Kind of experiment: Synergistic antibacterial activity against Acinetobacter baumannii infected in mouse assessed as reduction of bacterial burden in lung at 60 mg/kg,po administered bid in presence of rifampin for 3 days. The experiment is classed as functional. The following applies: time 3 day.
The test system of experiment [20] is Acinetobacter baumannii. Kind of experiment: Synergistic antibacterial activity against Acinetobacter baumannii infected in mouse assessed as increase in survival rate at 60 mg/kg,po administered bid in presence of rifampin for 3 days. The format is functional. The following applies: 72 h, time 3 day.

Turning to `Nc1nc(-c2ccc(NC(=O)c3cc(Cl)cc(Cl)c3)cc2)c[nH]1`, the MIC was 0.25 µg/mL in experiment [1], 2 µg/mL in experiment [2] and 1 µg/mL in experiment [3].
The like results for `Nc1ncc(-c2ccc(NC(=O)c3cc(Br)cc(Br)c3)cc2)[nH]1` were, in that order, 0.25 µg/mL, 2 µg/mL and 1 µg/mL.
With `CC(C)C[C@@H]1NC(=O)[C@@H](Cc2ccccc2)NC(=O)[C@H](CCN)NC(=O)[C@@H](NC(=O)[C@H](CCN)NC(=O)[C@@H](NC(=O)[C@@H](N)CCN)[C@H](C)O)CCNC(=O)[C@H]([C@@H](C)O)NC(=O)[C@H](CCN)NC(=O)[C@H](CCN)NC1=O`, the “fold change (FC)” value in [4] and in experiment [5] was 300 each time.
`CC(C)C[C@@H]1NC(=O)[C@@H](Cc2ccccc2)NC(=O)[C@H](CCN)NC(=O)[C@@H](NC(=O)[C@H](CCN)NC(=O)[C@@H](N)[C@H](C)O)CCNC(=O)[C@H]([C@@H](C)O)NC(=O)[C@H](CCN)NC(=O)[C@H](CCN)NC1=O`: the “fold change (FC)” value in [6] and in experiment [7] was 10 throughout.
Regarding `NCCCC(c1c[nH]c(N)n1)c1cnc(N)[nH]1`, the MIC stood at 0.25 µg/mL in experiment [8] and 1 µg/mL in experiment [9].
As for `CC(C)C[C@@H]1NC(=O)[C@@H](CC(C)C)NC(=O)[C@H](CCN)NC(=O)[C@@H](NC(=O)[C@H](CCN)NC(=O)[C@@H](NC(=O)[C@@H](N)CCN)[C@H](C)O)CCNC(=O)[C@H]([C@@H](C)O)NC(=O)[C@H](CCN)NC(=O)[C@H](CCN)NC1=O`, the “fold change (FC)” value in experiment [4] and in experiment [5] was 300 throughout.
Take `CO[C@@H]1[C@@H](OC(N)=O)[C@@H](O)[C@H](Oc2ccc3c(O)c(NC(=O)c4ccc(O)c(CC=C(C)C)c4)c(=O)oc3c2C)OC1(C)C` [NOVOBIOCIN]: the survival at 50 mg/kg in experiment [10] was 90%. Further, the survival at 5 mg/kg in experiment [11] was found to be 100%.
As for `N=C(N)c1ccc(OCCCCCOc2ccc(C(=N)N)cc2)cc1` [PENTAMIDINE], the dissociation constant (Kd) in experiment [12] amounted to 120 nM. The survival at 10 mg/kg in experiment [13] came out at 100%; in experiment [14] it was 90%.
Regarding `CO[C@H]1/C=C/O[C@@]2(C)Oc3c(C)c(O)c4c(O)c(c(/C=N/N5CCN(C)CC5)c(O)c4c3C2=O)NC(=O)/C(C)=C\C=C\[C@H](C)[C@H](O)[C@@H](C)[C@@H](O)[C@@H](C)[C@H](OC(C)=O)[C@@H]1C` [RIFAMPIN], the Activity is on record as 6 log10CFU/g in experiment [15] and 2 log10CFU/g in experiment [18]. The survival at 5 mg/kg in [16] is 90%; in experiment [17], 50%.
For the compound `CC(=O)N[C@H](C(=O)N[C@H](CO)C(=O)N[C@H]1CCNC(=O)[C@H]([C@@H](C)O)NC(=O)[C@H](CCN)NC(=O)[C@H](CCN)NC(=O)[C@H](CC(C)C)NC(=O)[C@@H](Cc2ccccc2)NC(=O)[C@H](CCN)NC1=O)[C@@H](C)O` [SPR-741] (Ac-T[dS][Dab][Dab][dF]L[Dab][Dab]T; lactam 3-C), the Activity in [19] worked out at 6 log10CFU/g. In addition, in experiment [20], the survival at 60 mg/kg was found to be 90%.
